Assay results published in patent US20230104936A1, “TRPML MODULATORS” (Casma Therapeutics, Inc., priority 2019, published 2023).

Test system: TFEB
Assay: TFEB nuclear translocation assay, HeLa wt cells
Type: cell-based
Settings: 2 hrs compound treatment, Table 1 does not say HeLa wt or TRPML1 KO
Summary of the method: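 Read-out is the ratio of TFEB immunofluorescence in the nucleus to that in a ring just outside it, measured by automated imaging. HeLa wt cells received compounds for 2 hrs at 37° C before fixation and staining; AC50 values come from this ratio.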

Structure (SMILES)	AC50 (Homo sapiens, HeLa, 2 h)	AC50
CN1CC2(CCN(c3ccccc3NS(=O)(=O)c3ccc(S(=O)(=O)N(C)C)cc3)CC2)c2cccnc21 [Compound A-331, N1,N1-dimethyl-N4-(2-{1′-methyl-1′,2′-dihydrospiro[piperidine-4,3′-pyrrolo[2,3-b]pyridin]-1-yl}phenyl)benzene-1,4-disulfonamide]	≤ 2000 nM	–
CN(C)S(=O)(=O)c1ccc(S(=O)(=O)Nc2ccccc2N2CCN(C3CCCC3)CC2)cc1 [Compound A-453, N4-[2-(4-cyclopentylpiperazin-1-yl)phenyl]-N1,N1-dimethylbenzene-1,4-disulfonamide]	2010 to 8000 nM	–
CN(C)S(=O)(=O)c1ccc(S(=O)(=O)Nc2ccccc2N2CCN(C(C)(C)C)CC2)cc1 [Compound A-337, N4-[2-(4-tert-butylpiperazin-1-yl)phenyl]-N1,N1-dimethylbenzene-1,4-disulfonamide]	8010 to 9990 nM	–
COCC1(C)CCN(c2ccccc2NS(=O)(=O)c2ccc(C3(C(F)(F)F)N=N3)cc2)CC1 [Compound A-740, N-{2-[4-(methoxymethyl)-4-methylpiperidin-1-yl]phenyl}-4-[3-(trifluoromethyl)-3H-diazirin-3-yl]benzene-1-sulfonamide]	8010 to 9990 nM	–
CC(c1cccc(C#N)c1N1CCC(CN2C[C@@H](C)O[C@@H](C)C2)CC1)S(=O)(=O)c1ccc(S(=O)(=O)N(C)C)cc1 (single isomer, unassigned) [Compound A-854, 4-((1-(3-cyano-2-(4-((2,6-dimethylmorpholino)methyl)piperidin-1-yl)phenyl)ethyl)sulfonyl)-N,N-dimethylbenzenesulfonamide]	–	≤ 2000 nM
CC(c1cccc(F)c1N1CCC(CN2CCC(F)(F)CC2)CC1)S(=O)(=O)c1ccc(S(=O)(=O)N(C)C)cc1 (stereo not shown) [Compound A-804, 4-((1-(2-(4-((4,4-difluoropiperidin-1-yl)methyl)piperidin-1-yl)-3-fluorophenyl)ethyl)sulfonyl)-N,N-dimethylbenzenesulfonamide]	–	≤ 2000 nM
O=S(=O)(Nc1ccccc1N1CCC(c2ccc(Cl)cc2F)CC1)c1ccccc1 [Compound A-42, N-{2-[4-(4-chloro-2-fluorophenyl)piperidin-1-yl]phenyl}benzenesulfonamide]	≥ 10000 nM	–
CC1(C)CC2(CCN(c3ccccc3NS(=O)(=O)c3ccc(C4CC4)cc3)CC2)CO1 [Compound A-672, 4-cyclopropyl-N-(2-{3,3-dimethyl-2-oxa-8-azaspiro[4.5]decan-8-yl}phenyl)benzene-1-sulfonamide]	≤ 2000 nM	–
CN(C)S(=O)(=O)c1ccc(S(=O)(=O)Nc2ccccc2N2CCC(C(C)(C)C)CC2)cc1 [Compound A-353, N4-[2-(4-tert-butylpiperidin-1-yl)phenyl]-N1,N1-dimethylbenzene-1,4-disulfonamide]	≤ 2000 nM	–
CCN1CCN(c2ccc(Cl)cc2NS(=O)(=O)c2ccc3c(c2)CCC3)CC1 [Compound A-289, N-[5-chloro-2-(4-ethylpiperazin-1-yl)phenyl]-2,3-dihydro-1H-indene-5-sulfonamide]	≥ 10000 nM	–
Cc1ccc(S(=N)(=O)Nc2ccccc2N2CCC(c3ccc(Cl)cc3F)CC2)cc1 (stereo not shown) [Compound A-151, N-{2-[4-(4-chloro-2-fluorophenyl)piperidin-1-yl]phenyl}-4-methylbenzene-1-sulfonoimidamide]	2010 to 8000 nM	–
CCC1(OC)CCN(c2ccccc2NS(=O)(=O)c2ccc(S(=O)(=O)N(C)C)cc2)CC1 [Compound A-546, N4-[2-(4-ethyl-4-methoxypiperidin-1-yl)phenyl]-N1,N1-dimethylbenzene-1,4-disulfonamide]	≤ 2000 nM	–
CN(C)S(=O)(=O)c1ccc(S(=O)(=O)Nc2cccc(F)c2N2CCC(CN3C4CCC3COC4)CC2)cc1 [Compound A-790, N4-{3-fluoro-2-[4-({3-oxa-8-azabicyclo[3.2.1]octan-8-yl}methyl)piperidin-1-yl]phenyl}-N1,N1-dimethylbenzene-1,4-disulfonamide]	≤ 2000 nM	–
COCC1(C)CCN(c2ccccc2NS(=O)(=O)C2CCc3ccccc32)CC1 (stereo not shown) [Compound A-597, N-{2-[4-(methoxymethyl)-4-methylpiperidin-1-yl]phenyl}-2,3-dihydro-1H-indene-1-sulfonamide]	8010 to 9990 nM	–
C[C@@H]1CN(CC2CCN(c3c(F)cccc3[C@@H](C)S(=O)(=O)c3ccc(S(=N)(=O)N(C)C)cc3)CC2)C[C@H](C)O1 (single isomer, unassigned) [Compound A-902]	≥ 10000 nM	–
COC(=O)NC1(C)CCN(c2c(F)cccc2NS(=O)(=O)c2ccc(S(=O)(=O)N(C)C)cc2)CC1 [Compound A-825, methyl N-(1-{2-[4-(dimethylsulfamoyl)benzenesulfonamido]-6-fluorophenyl}-4-methylpiperidin-4-yl)carbamate]	≤ 2000 nM	–
C[C@H]1CN(c2ccccc2NS(=O)(=O)c2ccc(S(=O)(=O)N(C)C)cc2)CCN1C(=O)c1cscn1 [Compound A-416, N1,N1-dimethyl-N4-{2-[(3S)-3-methyl-4-(1,3-thiazole-4-carbonyl)piperazin-1-yl]phenyl}benzene-1,4-disulfonamide]	2010 to 8000 nM	–

Structure (SMILES)	AC50 (Homo sapiens, HeLa, 2 h)	AC50
CCC(C1CCN(c2c(F)cccc2NS(=O)(=O)c2ccc(S(=N)(=O)N(C)C)cc2)CC1)N1CCOCC1 (stereo not shown) [Compound A-857, 4-[(3-fluoro-2-{4-[1-(morpholin-4-yl)propyl]piperidin-1-yl}phenyl)sulfamoyl]-N,N-dimethylbenzene-1-sulfonoimidamide]	≤ 2000 nM	–
CC1(C)CC2(CCN(c3ccccc3NS(=O)(=O)Cc3ccc(C(F)F)cc3)CC2)CO1 [Compound A-716, 1-[4-(difluoromethyl)phenyl]-N-(2-{3,3-dimethyl-2-oxa-8-azaspiro[4.5]decan-8-yl}phenyl)methanesulfonamide]	2010 to 8000 nM	–
CC1(C)CC2(CCN(c3ccccc3NS(=O)(=O)Cc3ccccc3)CC2)CO1 [Compound A-570, N-(2-{3,3-dimethyl-2-oxa-8-azaspiro[4.5]decan-8-yl}phenyl)-1-phenylmethanesulfonamide]	≤ 2000 nM	–
CN(C)S(=O)(=O)c1ccc(S(=O)(=O)Nc2ccccc2N2CCC(c3ccccc3F)CC2)cc1 [Compound A-10, N4-{2-[4-(2-fluorophenyl)piperidin-1-yl]phenyl}-N1,N1-dimethylbenzene-1,4-disulfonamide]	≤ 2000 nM	–
COCC1(C)CCN(c2ccccc2NS(=O)(=O)c2ccc3c(c2)OC2(CCC2)O3)CC1 [Compound A-685, N-{2-[4-(methoxymethyl)-4-methylpiperidin-1-yl]phenyl}spiro[1,3-benzodioxole-2,1′-cyclobutane]-6-sulfonamide]	≤ 2000 nM	–
CC1(C)CC2(CCN(c3ccccc3NS(=O)(=O)c3cccc(C4CC4)c3)CC2)CO1 [Compound A-669, 3-cyclopropyl-N-(2-{3,3-dimethyl-2-oxa-8-azaspiro[4.5]decan-8-yl}phenyl)benzene-1-sulfonamide]	≤ 2000 nM	–
Cc1cc(Cl)c(N2CCOCC2)c(NS(=O)(=O)c2ccc(S(=O)(=O)N(C)C)cc2)c1 [Compound A-888, N4-[3-chloro-5-methyl-2-(morpholin-4-yl)phenyl]-N1,N1-dimethylbenzene-1,4-disulfonamide]	2010 to 8000 nM	–
Cn1ccc2cc(S(=O)(=O)Nc3ccccc3N3CCN(C(=O)C(C)(C)C)CC3)ccc21 [Compound A-515, N-{2-[4-(2,2-dimethylpropanoyl)piperazin-1-yl]phenyl}-1-methyl-1H-indole-5-sulfonamide]	2010 to 8000 nM	–
CN(C)S(=O)(=O)c1ccc(S(=O)(=O)Nc2ccccc2N2CCN(C(=O)C(C)(C)C)CC2)cc1 [Compound A-225, N4-{2-[4-(2,2-dimethylpropanoyl)piperazin-1-yl]phenyl}-N1,N1-dimethylbenzene-1,4-disulfonamide]	2010 to 8000 nM	–
CN(C)S(=O)(=O)c1ccc(S(=O)(=O)Nc2ccccc2N2CCC(O)(c3ccncc3F)CC2)cc1 [Compound A-401, N4-{2-[4-(3-fluoropyridin-4-yl)-4-hydroxypiperidin-1-yl]phenyl}-N1,N1-dimethylbenzene-1,4-disulfonamide]	≥ 10000 nM	–
CN(C)S(=O)(=O)c1ccc(S(=O)(=O)Nc2ccccc2N2CCN(CC3CCCO3)CC2)cc1 (stereo not shown) [Compound A-495, N1,N1-dimethyl-N4-(2-{4-[(oxolan-2-yl)methyl]piperazin-1-yl}phenyl)benzene-1,4-disulfonamide]	8010 to 9990 nM	–
C[C@@H]1CN(CC2CCN(c3c(F)cccc3NS(=O)(=O)c3ccc4c(c3)CCC4)CC2)C[C@H](C)O1 [Compound A-759, N-[2-(4-{[(2R,6S)-2,6-dimethylmorpholin-4-yl]methyl}piperidin-1-yl)-3-fluorophenyl]-2,3-dihydro-1H-indene-5-sulfonamide]	≤ 2000 nM	–
CC(c1cccc(F)c1N1CCCCC1)S(=O)(=O)c1ccc(S2(=O)=NCCC2)cc1 (single isomer, unassigned) [Compound A-991, 1-(4-((1-(3-fluoro-2-(piperidin-1-yl)phenyl)ethyl)sulfonyl)phenyl)-4,5-dihydro-3H-isothiazole 1-oxide]	–	2010 to 8000 nM
Cc1ccc(N2CCOCC2)c(NS(=O)(=O)Cc2ccccc2)c1 [Compound A-628, N-[5-methyl-2-(morpholin-4-yl)phenyl]-1-phenylmethanesulfonamide]	2010 to 8000 nM	–
CN(C)S(=O)(=O)c1ccc(S(=O)(=O)Nc2cccc(F)c2N2CCC(N3CCC4(CCOC4)C3)CC2)cc1 (single isomer, unassigned) [Compound A-909, N1-(2-(4-(2-oxa-7-azaspiro[4.4]nonan-7-yl)piperidin-1-yl)-3-fluorophenyl)-N4,N4-dimethylbenzene-1,4-disulfonamide]	2010 to 8000 nM	–
CN(C)S(=O)(=O)c1ccc(S(=O)(=O)Nc2ccccc2N2CCC3(CC2)COC(C)(C)C3)cc1 [Compound A-440, N4-(2-{3,3-dimethyl-2-oxa-8-azaspiro[4.5]decan-8-yl}phenyl)-N1,N1-dimethylbenzene-1,4-disulfonamide]	≤ 2000 nM	–
CCN1CCN(c2c(Cl)cccc2NS(=O)(=O)c2ccc3c(c2)CCC3)C(=O)C1 [Compound A-315, N-[3-chloro-2-(4-ethyl-2-oxopiperazin-1-yl)phenyl]-2,3-dihydro-1H-indene-5-sulfonamide]	≥ 10000 nM	–
